According to article PMC9216541, “Design and synthesis of Nrf2-derived hydrocarbon stapled peptides for the disruption of protein-DNA-interactions” (PLoS ONE, 2022):
Each block holds one molecule with its values, some of them ahead of it. Where a SMILES comes first, the peptide text is derived from it. Bridges are numbered along the chain shown (N, C = ends). [ ]: non-standard residue; d: D form. The star is where a group is joined. FITC = O=C1OC2(c3ccc(O)cc3Oc3cc(O)ccc32)c2ccc(NC(=S)*)cc21; R8 = C=CCCCCCC[C@@](C)(N)C(=O)O; R5 = C=CCCC[C@@](C)(N)C(=O)O; S5 = C=CCCC[C@](C)(N)C(=O)O; GABA = NCCCC(=O)O

What was measured:
[1] = CD measurements, helical fraction from ellipticity at 222 nm; assay type: physicochemical; conditions: peptide 20 μM in water, calculated from [θ]obs at 222 nm by established methods (ref 30)
Method: CD measurements were carried out on a JASCO J-715 spectrometer using water as the solvent for all measurements. The peptides were solved in water to a concentration of 20 μM. The linear peptide 5 was used as a control compound. The helical fraction for peptides 1–5 was calculated from the observed ellipticity [θ]obs at 222 nm using established methods.

[2] = target: 6FAM-labeled MARE23 sequence (Nrf2:sMaf binding dsDNA); assay: Fluorescence polarization assay with 6FAM-labeled MARE23 dsDNA; conditions: FP, 10 nM 6FAM-MARE23 dsDNA, peptide 25 μM - 6.1 nM, 50 mM Tris/HCl pH 7.5, 100 mM NaCl, 60 min at room temperature; quadruplicates, three independent replicates, four parameter logistic fit
Method: For DNA hybridization, equimolar amounts of fluorescein- or 6FAM-labeled sense and unlabeled antisense oligonucleotides were mixed in 1X annealing buffer (10 mM Tris pH 7.5, 100 mM NaCl, 1 mM EDTA) to yield a final concentration of 20 μM of dsDNA. Subsequently, mixtures were heated to 95°C for 10 min followed by cooling to 20°C at a rate of 1°C per minute. Afterwards, dsDNA probes were diluted to 10 nm in FP assay buffer (50 mM Tris/HCl pH 7.5, 100 mM NaCl, 2 mM MgCl2, 0.5 mM EDTA, 10 μg/mL BSA, 0.1 mM DTT, 0.01% Tween-20) and mixed with serial dilutions of peptides 1–6 (25 μM—6.1 nm), that were generated with the Echo 520 liquid handler (Labcyte Inc.), in a total volume of 10.2 μL per well in black 384-well small volume microplates (Greiner Bio-One). The microplates were shaken at 1500 rpm for 30 s, centrifuged at 200 x g for 60 s and subsequently incubated for 60 min in a humidified, dark chamber at room temperature. Finally, the fluorescence polarization was analyzed on an Infinite® M1000 microplate reader (Tecan) using the appropriate settings for fluorescein/6FAM, i.e. an excitation wavelength of 470 ± 2.5 nm and an emission wavelength of 520 ± 7.5 nm.
Each concentration was analyzed in quadruplicates and resulting mean fluorescence polarization and standard deviation was fit to a four parameter logistic model with Origin (OriginLab, Northampton, MA) using the following equation: y=A1−A2/1+x/x0^p+A2
Each experiment was performed in three independent replicates.
Figure S5. Fluorescence polarization binding studies of stapled peptides 1-6 towards target DNA sequence MARE23 (5’-[6FAM][…]-3’ and 5’-[…]-3’) (A, C) and control DNA sequence MARE23_scrambled (5’-[6FAM][…]-3’ and 5’-GAGTAA-TAGCTATGACGATATTCCG-3’) (B and D, respectively). The obtained polarization values were either baseline-corrected (A, B) or corrected for the changes in fluorescence intensity in the free/bound state of the fluorescently labeled dsDNA probes (C, D).^[1] The resulting dissociation constants are listed in the inset tables in the respective panels. […]

[3] = test system: dsDNA probe (MARE23, MARE23_scrambled, randomized sequence); assay: Electrophoretic mobility shift assay; assay type: binding; conditions: 1 pmol dsDNA probe with excess of peptide, 30 min at room temperature, native 15% TBE polyacrylamide gel
Method: DNA hybridization was performed as described above. Afterwards, 1 pmol of the dsDNA probe was incubated with the respective excess of peptide in 1X assay buffer (10 mM Tris pH 7.5, 100 mM KCl, 2 mM MgCl2, 0.5 mM EDTA, 10 μg/mL BSA, 0.1 mM DTT, 2.5% glycerol) in a final volume of 10 μL and incubated for 30 min at room temperature. Prior to gel electrophoresis, samples were mixed with 2 μL of 6X loading buffer (60 mM Tris pH 7.5, 15% Ficoll 400) and the reaction mixtures were then loaded onto hand-cast, native 15% TBE polyacrylamide gels. Separation was performed for 45 min at a current of 20 mA per gel in a cold room at 4°C and the gels were analyzed on a Typhoon FLA 9500 laser scanner (GE Healthcare) using the 473 nm laser for excitation and a 510 nm long-pass filter (LPB (510LP)) for emission of fluorescein and FAM, respectively.
[picture] Figure S6. Electrophoretic mobility shift assays of peptides 4 and 5 with MARE23 (5’-[6FAM][…]-3’ and 5’-[…]-TTCCG-3’).
Figure S7. Electrophoretic mobility shift assays of peptides 4 and 5 with MARE23_scrambled (5’-[6FAM][…]-3’ and 5’-[…]-TTCCG-3’).
Figure S8. Electrophoretic mobility shift assays of peptides 4 and 5 with DNA with a randomized sequence (5’-[6FAM][…]-3’ and 5’-GAG-[…]-3’).

[4] = target: peptide 1 (stapled Nrf2-derived) (UniProt Q16236); assay: fluorescence polarization; conditions: FP: 50 mM Tris/HCl pH 7.5, 100 mM NaCl, 2 mM MgCl2, 0.5 mM EDTA, 10 ug/mL BSA, 0.1 mM DTT, 0.01% Tween-20, 10 nM DNA, 60 min RT; EMSA: 10 mM Tris pH 7.5, 100 mM
[5] = target: peptide 2 (stapled Nrf2-derived) (UniProt Q16236); assay: fluorescence polarization; conditions: FP: 50 mM Tris/HCl pH 7.5, 100 mM NaCl, 2 mM MgCl2, 0.5 mM EDTA, 10 ug/mL BSA, 0.1 mM DTT, 0.01% Tween-20, 10 nM DNA, 60 min RT; EMSA: 10 mM Tris pH 7.5, 100 mM
[6] = target: peptide 3 (stapled Nrf2-derived) (UniProt Q16236); assay: fluorescence polarization; conditions: FP: 50 mM Tris/HCl pH 7.5, 100 mM NaCl, 2 mM MgCl2, 0.5 mM EDTA, 10 ug/mL BSA, 0.1 mM DTT, 0.01% Tween-20, 10 nM DNA, 60 min RT; EMSA: 10 mM Tris pH 7.5, 100 mM
[7] = target: peptide 4 (stapled Nrf2-derived) (UniProt Q16236); assay: fluorescence polarization; conditions: FP: 50 mM Tris/HCl pH 7.5, 100 mM NaCl, 2 mM MgCl2, 0.5 mM EDTA, 10 ug/mL BSA, 0.1 mM DTT, 0.01% Tween-20, 10 nM DNA, 60 min RT; EMSA: 10 mM Tris pH 7.5, 100 mM
[8] = target: peptide 5 (linear Nrf2-derived) (UniProt Q16236); assay: fluorescence polarization; conditions: FP: 50 mM Tris/HCl pH 7.5, 100 mM NaCl, 2 mM MgCl2, 0.5 mM EDTA, 10 ug/mL BSA, 0.1 mM DTT, 0.01% Tween-20, 10 nM DNA, 60 min RT; EMSA: 10 mM Tris pH 7.5, 100 mM
peptide 6 (scrambled) = assay: fluorescence polarization; conditions: FP: 50 mM Tris/HCl pH 7.5, 100 mM NaCl, 2 mM MgCl2, 0.5 mM EDTA, 10 ug/mL BSA, 0.1 mM DTT, 0.01% Tween-20, 10 nM DNA, 60 min RT; EMSA: 10 mM Tris pH 7.5, 100 mM
[9] = test system: cellular DNA in fixed, permeabilized HeLa cells; assay: Incubation with fixed, permeabilized HeLa cells, wide-field fluorescence microscopy; assay type: cell-based; conditions: FITC-labeled peptide
Method: (§1) HeLa cells (ATCC CCL-2) were cultured in Dulbecco’s Modified Eagle Medium (DMEM) supplemented with 10% FBS (Pan Biotech), 2 mM L-glutamine, 100 U/ml penicillin and 100 μg/ml streptomycin at 37°C and 5% CO2.
For fixing and permeabilization, HeLa cells were incubated with pre-warmed 4% formaldehyde for 20 min at 37°C, followed by permeabilization with 0.25% Triton-X 100 for 20 min at room temperature. For the evaluation of the effect of proteases, cOmplete protease inhibitor mix (1X) 500 μl was added to the fixed cells for 30 min. Peptides were incubated at 1 μM for 3 h in the presence of the protease inhibitor mix, followed by 3 min incubation with 1 μM of the nucleic acid marker DAPI, then extensively washed with DPBS and subjected to wide-field imaging.
(§2) Imaging was performed using an Olympus IX81 microscope with 20x and 60x UPLSAPO objectives and standard fluorescence filter sets.

living HeLa cells = assay: Cell permeability in living HeLa cells, fluorescence microscopy; assay type: cell-based
Method: as §1
To investigate the cell permeability of peptide 4, living HeLa cells were washed twice and incubated for 5 min with DPBS + Mg/Ca, ([…]) in a CO2 incubator. Cells were subsequently incubated in the presence of 10 μM of peptide 4 in DPBS + Mg/Cl for 5 min, followed by two washes with DPBS + Mg/Cl and final addition of HEPES-buffered imaging medium containing 0.5 μM propidium iodide.
as §2

Helicity (calculated) / α-helical content [1]: 18% | Kd [2]: 1200 ± 300 nM
Molecule: CC[C@H](C)[C@H](NC(C)=O)C(=O)N[C@@H](CCCNC(=N)N)C(=O)N[C@@H](CCCNC(=N)N)C(=O)N[C@@H](CCCNC(=N)N)C(=O)N[C@]1(C)CCCCCCC=CCCC[C@@](C)(C(=O)N[C@@H](CC(N)=O)C(=O)N[C@@H](CS)C(=O)N[C@@H](CCCNC(=N)N)C(=O)N[C@@H](CCCCN)C(=O)N[C@@H](CCCNC(=N)N)C(=O)N[C@@H](CCCCN)C(N)=O)NC(=O)[C@H](C)NC(=O)[C@H](C)NC(=O)[C@H](C(C)C)NC(=O)[C@H](CCCCN)NC(=O)[C@H](CC(N)=O)NC(=O)[C@H](CCCCN)NC1=O [compound 4] (Ac-IRRR[R8]KNKVAA[S5]NCRKRK-NH2; staple 5-12)
mobility shift of DNA [3]: induce a mobility shift of DNA at a lower concentration than the unstapled peptide 5

Molecule: CGGAATCAATGACTCATTGTTACTC (double strand) [MARE23]
Kd [4]: 1600 nM | Kd [5]: 3900 nM | Kd [6]: 1500 nM | Kd [7]: 1200 nM | Kd [8]: 7900 nM | Kd (peptide 6 (scrambled)): 8100 nM

Molecule: IRRRGKNKVAAQNCRKRK [FITC-5, linear peptide 5 with N-terminal FITC-GABA- label]
enrichment in the nucleus ([9]; fixed (4% formaldehyde) and permeabilized (0.25% Triton-X 100) HeLa cells, DAPI co-stain): no enrichment in the nucleus could be observed | amount of peptide detectable in cells ([9]; fixed and permeabilized HeLa cells, identical exposure times): only small amounts

Molecule: CC[C@H](C)[C@H](NC(=O)CCCNC(=S)Nc1ccc2c(c1)C(=O)OC21c2ccc(O)cc2Oc2cc(O)ccc21)C(=O)N[C@@H](CCCNC(=N)N)C(=O)N[C@@H](CCCNC(=N)N)C(=O)N[C@@H](CCCNC(=N)N)C(=O)N[C@]1(C)CCCCCCC=CCCC[C@@](C)(C(=O)N[C@@H](CC(N)=O)C(=O)N[C@@H](CS)C(=O)N[C@@H](CCCNC(=N)N)C(=O)N[C@@H](CCCCN)C(=O)N[C@@H](CCCNC(=N)N)C(=O)N[C@@H](CCCCN)C(N)=O)NC(=O)[C@H](C)NC(=O)[C@H](C)NC(=O)[C@H](C(C)C)NC(=O)[C@H](CCCCN)NC(=O)[C@H](CC(N)=O)NC(=O)[C@H](CCCCN)NC1=O [FITC-4] ({FITC-GABA}-IRRR[R8]KNKVAA[S5]NCRKRK-NH2; staple 5-12)
membrane permeability in living cells (living HeLa cells; 10 μM peptide in DPBS + Mg/Ca, 5 min, serum-free, washed, FITC fluorescence microscopy): high membrane permeability in living cells | viability / membrane integrity of peptide-containing cells (propidium iodide) (living HeLa cells; 10 μM peptide, 0.5 μM propidium iodide in imaging medium): majority of peptide-containing cells were alive

Helicity (calculated) / α-helical content [1]: 20% | Kd [2]: 1600 ± 40 nM
Molecule: IRRRS5KNKS5AAQNCRKRK (sidechain bridge or staple) [compound 1, Nrf2-derived i,i+4 hydrocarbon stapled peptide (505/509), N-terminally acetylated, C-terminal amide]

Helicity (calculated) / α-helical content [1]: 36% | Kd [2]: 1500 ± 200 nM
Molecule: CC[C@H](C)[C@H](NC(C)=O)C(=O)N[C@@H](CCCNC(=N)N)C(=O)N[C@@H](CCCNC(=N)N)C(=O)N[C@@H](CCCNC(=N)N)C(=O)NCC(=O)N[C@@H](CCCCN)C(=O)N[C@@H](CC(N)=O)C(=O)N[C@@H](CCCCN)C(=O)N[C@]1(C)CCCC=CCCC[C@@](C)(C(=O)N[C@@H](CC(N)=O)C(=O)N[C@@H](CS)C(=O)N[C@@H](CCCNC(=N)N)C(=O)N[C@@H](CCCCN)C(=O)N[C@@H](CCCNC(=N)N)C(=O)N[C@@H](CCCCN)C(N)=O)NC(=O)[C@H](C)NC(=O)[C@H](C)NC1=O [compound 3] (Ac-IRRRGKNK[R5]AA[S5]NCRKRK-NH2; staple 9-12)
